The text below walks through data of patent US11634390B2, “Agricultural chemicals” (GLOBACHEM NV, priority 2016, dated 2023).

Holding throughout (assay type): in vivo
Assay [1] deals with Stellaria media. Nature of the assay: Herbicidal screen, post-emergence spray of seedlings in pots: Chickweed. The conditions noted are these: Stellaria media, post-emergence, 240 h, assessed 10 days after treatment, read-out: percentage increase in necrosis relative to the control. As to the method:
(§1) Compounds were screened at four concentrations (100, 50, 25 and 12.5 g/ha) against four weed species (Stellaria media—Chickweed; Abutilon theophrasti—velvetleaf; Amaranthus retroflexus—common amaranthus; Echinochloa crus-galli—Barnyard grass) and maize as a crop species. Seed were sown in 12.5 cm diameter pots (20 per pot for the weed species and 5 for maize). Seedlings were sprayed with 2 ml of compound two weeks after sowing, with 2 ml water used as the control. Each treatment was replicated three times. Plants were maintained at 20° C. and assessed 10 days after treatment. The assessment was based on the % plant in each pot showing growth. The data is presented in Table 1 in which d represents no detected effect at this concentration; c represents a percentage increase in necrosis relative to the control of 0.1-50; b represents a percentage increase in necrosis of 50-80; and a represents a percentage increase in necrosis of 80-100.

Assay [2] relates to maize. The assay can be described thus: Herbicidal screen, post-emergence spray of seedlings in pots: crop species. Particulars: Zea mays, post-emergence, 240 h, assessed 10 days after treatment, read-out: percentage increase in necrosis relative to the control. The protocol:
as §1

Assay [3] has as its system Amaranthus retroflexus. The assay can be described thus: Herbicidal screen, post-emergence spray of seedlings in pots: common amaranthus. Particulars: Amaranthus retroflexus, post-emergence, 240 h, assessed 10 days after treatment, read-out: percentage increase in necrosis relative to the control. As to the method: as §1
Assay [4] has as its system Abutilon theophrasti. Nature of the assay: Herbicidal screen, post-emergence spray of seedlings in pots: velvetleaf. The conditions noted are these: Abutilon theophrasti, post-emergence, 240 h, assessed 10 days after treatment, read-out: percentage increase in necrosis relative to the control. As to the method: as §1
Assay [5] relates to Echinochloa crus-galli. The assay can be described thus: Herbicidal screen, post-emergence spray of seedlings in pots: Barnyard grass. The conditions noted are these: Echinochloa crus-galli, post-emergence, 240 h, assessed 10 days after treatment, read-out: percentage increase in necrosis relative to the control. The protocol: as §1
Assay [6] has as its system four weed species. The assay can be described thus: Herbicidal screen, summary across the four weed species. Particulars: summary in words, 12.5-100 g/ha. The protocol: as §1

As for `Cn1c(C(F)(F)F)cc(=O)n(-c2cc(C(=O)NS(=O)(=O)C3(C)CC3)c(Cl)cc2F)c1=O` [Example 7, 2-Chloro-4-fluoro-5-(3-methyl-2,6-dioxo-4-(trifluoromethyl)-3,6-dihydropyrimidin-1(2H)-yl)-N-((1-methylcyclopropyl)sulfonyl)benzamide], in assay [1], the pest or weed control at 12.5 g/ha is 0.1 to 50%, the pest or weed control at 25 g/ha fell in the range of 50 to 80%, the pest or weed control at 50 g/ha lay within 50 to 80% and the pest or weed control at 100 g/ha fell in the range of 80 to 100%. In assay [2], the plant injury at 12.5 g/ha was 0.1 to 50%, the plant injury at 25 g/ha fell in the range of 0.1 to 50%, the plant injury at 50 g/ha was in the range of 0.1 to 50% and the plant injury at 100 g/ha was in the range of 50 to 80%. In assay [3], the pest or weed control at 12.5 g/ha lay in the range of 80 to 100%, the pest or weed control at 25 g/ha was in the range of 80 to 100%, the pest or weed control at 50 g/ha is 80 to 100% and the pest or weed control at 100 g/ha lay within 80 to 100%. In assay [4], the pest or weed control at 12.5 g/ha fell in the range of 0.1 to 50%, the pest or weed control at 25 g/ha was in the range of 80 to 100%, the pest or weed control at 50 g/ha fell in the range of 80 to 100% and the pest or weed control at 100 g/ha lay in the range of 80 to 100%. In assay [5], the pest or weed control at 12.5 g/ha is 0.1 to 50%, the pest or weed control at 25 g/ha is 0.1 to 50%, the pest or weed control at 50 g/ha lay within 50 to 80% and the pest or weed control at 100 g/ha was in the range of 80 to 100%. In assay [6], the “herbicidal activity against the weed species” value is given as “good activity across several of the weed species”.
`Cn1c(C(F)(F)F)cc(=O)n(-c2cc(C(=O)NS(=O)(=O)C3CCCC3)c(Cl)cc2F)c1=O` [Example 13, 2-Chloro-N-(cyclopentylsulfonyl)-4-fluoro-5-(3-methyl-2,6-dioxo-4-(trifluoromethyl)-3,6-dihydropyrimidin-1(2H)-yl)benzamide]: in assay [1], the pest or weed control at 12.5 g/ha is 0.1 to 50%, the pest or weed control at 25 g/ha was 0.1 to 50%, the pest or weed control at 50 g/ha fell in the range of 0.1 to 50% and the pest or weed control at 100 g/ha is 0.1 to 50%. Moreover, in assay [2], the plant injury at 12.5 g/ha lay in the range of 0.1 to 50%, the plant injury at 25 g/ha lay in the range of 0.1 to 50%, the plant injury at 50 g/ha was 0.1 to 50% and the plant injury at 100 g/ha lay in the range of 0.1 to 50%. Further, in assay [3], the pest or weed control at 12.5 g/ha fell in the range of 50 to 80%, the pest or weed control at 25 g/ha was 50 to 80%, the pest or weed control at 50 g/ha fell in the range of 80 to 100% and the pest or weed control at 100 g/ha is 80 to 100%. Further, in assay [4], the pest or weed control at 12.5 g/ha is 0.1 to 50%, the pest or weed control at 25 g/ha fell in the range of 50 to 80%, the pest or weed control at 50 g/ha was in the range of 50 to 80% and the pest or weed control at 100 g/ha is 80 to 100%. Moreover, in assay [5], the pest or weed control at 12.5 g/ha was 0.1 to 50%, the pest or weed control at 25 g/ha lay within 0.1 to 50%, the pest or weed control at 50 g/ha is 0.1 to 50% and the pest or weed control at 100 g/ha lay within 0.1 to 50%. Also, the “herbicidal activity against the weed species” value in assay [6] was “good activity across several of the weed species”.
